Experimental data: patent US10294234B2, “HIV inhibitor compounds” (priority 2017, dated 2019)
Like-named read-outs stand apart in the source and are kept apart here.

Tested on: HIV-1 (IIIB) in MT-4 cells
Experiment: MT-4 HIV assay
Assay type: cell-based
Conditions: Human immunodeficiency virus 1, MT4, 120 h
Summary of the method: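 Antiviral activity was read by Cell Titer Glo after a 5-day, 37 °C culture of MT-4 cells pre-infected with a 1:250 dilution of HIV-1 (IIIB). Compounds were tested as threefold dilution series in complete RPMI. Controls were no drug, mock infection and 5 uM AZT.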

[1] = HIV-1 (IIIB), MT-4 cells, 5 days, Cell Titer Glo, read-out: EC50

| SMILES | EC50 [1] [nM] | EC50 [nM] |
| --- | --- | --- |
| COC(=O)N[C@H](C(=O)N[C@@H](Cc1ccc(C#Cc2ccc(N3C[C@H]4CN(C)C[C@H]4C3)nc2)cc1)[C@@H](O)CN(Cc1c(F)cc(-c2ccn(C(F)F)n2)cc1F)NC(=O)[C@@H](NC(=O)OC)C(C)(C)C(F)(F)F)C(C)(C)C(F)(F)F [Example 164, Methyl ((5S,8S,9S,14S)-11-(4-(1-(difluoromethyl)-1H-pyrazol-3-yl)-2,6-difluorobenzyl)-16,16,16-trifluoro-9-hydroxy-15,15-dimethyl-8-(4-((6-((3 aR,6aS)-5-methylhexahydropyrrolo[3,4-c]pyrrol-2(1H)-yl)pyridin-3-yl)ethynyl)benzyl)-3,6,13-trioxo-5-(1,1,1-trifluoro-2-methylpropan-2-yl)-2-oxa-4,7,11,12-tetraazahexadecan-14-yl)carbamate] | 7.89 |  |
| COC(=O)N[C@H](C(=O)N[C@@H](Cc1ccc(C#Cc2ccc(N3CC4CCC(C3)N4C3COC3)nc2)cc1)[C@@H](O)CN(Cc1ccc(-c2ccc(F)cn2)cc1F)NC(=O)[C@@H](NC(=O)OC)C(C)(C)C(F)(F)F)C(C)(C)C(F)(F)F [Example 235, methyl ((5S,8S,9S,14S)-16,16,16-trifluoro-11-(2-fluoro-4-(5-fluoropyridin-2-yl)benzyl)-9-hydroxy-15,15-dimethyl-8-(4-((6-(8-(oxetan-3-yl)-3,8-diazabicyclo[3.2.1]octan-3-yl)pyridin-3-yl)ethynyl)benzyl)-3,6,13-trioxo-5-(1,1,1-trifluoro-2-methylpropan-2-yl)-2-oxa-4,7,11,12-tetraazahexadecan-14-yl)carbamate] | 16.7 |  |
| CC(C)([C@H](NC(=O)OC1COC1)C(=O)N[C@@H](Cc1ccc(C#Cc2ccc(N3CC4CCC(C3)N4C3COC3)nc2)cc1)[C@@H](O)CN(Cc1c(F)cc(-c2ccn(C(F)F)n2)cc1F)NC(=O)[C@@H](NC(=O)OC1COC1)C(C)(C)C(F)(F)F)C(F)(F)F [Example 169, oxetan-3-yl ((2S)-1-(2-(4-(1-(difluoromethyl)-1H-pyrazol-3-yl)-2,6-difluorobenzyl)-2-((2S,3S)-2-hydroxy-4-(4-((6-(8-(oxetan-3-yl)-3,8-diazabicyclo[3.2.1]octan-3-yl)pyridin-3-yl)ethynyl)phenyl)-3-((S)-4,4,4-trifluoro-33-dimethyl-2-(((oxetan-3-yloxy)carbonyl)amino)butanamido)butyl)hydrazinyl)-4,4,4-trifluoro-3,3-dimethyl-1-oxobutan-2-yl)carbamate] | 6.76 |  |
| CCN1C2CCC1CN(c1ccc(C#Cc3ccc(C[C@H](NC(=O)[C@@H](NC(=O)OC)C(C)(C)C(F)(F)F)[C@@H](O)CN(Cc4c(F)cc(-c5ccccn5)cc4F)NC(=O)[C@@H](NC(=O)OC)C(C)(C)C(F)(F)F)cc3)cn1)C2 [Example 241, methyl ((5S,8S,9S,14S)-11-(2,6-difluoro-4-(pyridin-2-yl)benzyl)-8-(4-((6-(8-ethyl-3,8-diazabicyclo[3.2.1]octan-3-yl)pyridin-3-yl)ethynyl)benzyl)-16,16,16-trifluoro-9-hydroxy-15,15-dimethyl-3,6,13-trioxo-5-(1,1,1-trifluoro-2-methylpropan-2-yl)-2-oxa-4,7,11,12-tetraazahexadecan-14-yl)carbamate] | 6.57 |  |
| COC(=O)N[C@H](C(=O)N[C@@H](Cc1ccc(C#Cc2ccc(N3CC[N+]([O-])(C4COC4)CC3)nc2)cc1)[C@@H](O)CN(Cc1c(F)cc(-c2ccn(C(F)F)n2)cc1F)NC(=O)[C@@H](NC(=O)OC)C(C)(C)C(F)(F)F)C(C)(C)C(F)(F)F [Example 54, 4-(5-((4-((2S,3S)-4-(1-(4-(1-(difluoromethyl)-1H-pyrazol-3-yl)-2,6-difluorobenzyl)-2-((S)-4,4,4-trifluoro-2-((methoxycarbonyl)amino)-3,3-dimethylbutanoyl)hydrazinyl)-3-hydroxy-2-((S)-4,4,4-trifluoro-2-((methoxycarbonyl)amino)-3,3-dimethylbutanamido)butyl)phenyl)ethynyl)pyridin-2-yl)-1-(oxetan-3-yl)piperazine 1-oxide] |  | 8.47 |
| COC(=O)N[C@H](C(=O)N[C@@H](Cc1ccc(-c2ccc(N3C[C@H]4C[C@@H]3CN4C3COC3)nc2)cc1)[C@@H](O)CN(Cc1c(F)cc(-c2ccn(C3CC3)n2)cc1F)NC(=O)[C@@H](NC(=O)OC)C(C)(C)C(F)(F)F)C(C)(C)C(F)(F)F [Example 194, Methyl ((5S,8S,9S,14S)-11-(4-(1-cyclopropyl-1H-pyrazol-3-yl)-2,6-difluorobenzyl)-16,16,16-trifluoro-9-hydroxy-15,15-dimethyl-8-(4-(6-((1R,4R)-5-(oxetan-3-yl)-2,5-diazabicyclo[2.2.1]heptan-2-yl)pyridin-3-yl)benzyl)-3,6,13-trioxo-5-(1,1,1-trifluoro-2-methylpropan-2-yl)-2-oxa-4,7,11,12-tetraazahexadecan-14-yl)carbamate] |  | 7.2 |
| CC(C)([C@H](NC(=O)OC1CC1)C(=O)N[C@@H](Cc1ccc(C#Cc2ccc(N3CC4CCC(C3)N4C3COC3)nc2)cc1)[C@@H](O)CN(Cc1c(F)cc(-c2ccn(C(F)F)n2)cc1F)NC(=O)[C@@H](NC(=O)OC1CC1)C(C)(C)C(F)(F)F)C(F)(F)F [Example 156, Cyclopropyl ((2S)-1-(2-((2S,3S)-3-((S)-2-((cyclopropoxycarbonyl)amino)-4,4,4-trifluoro-3,3-dimethylbutanamido)-2-hydroxy-4-(4-((6-(8-(oxetan-3-yl)-3,8-diazabicyclo[3.2.1]octan-3-yl)pyridin-3-yl)ethynyl)phenyl)butyl)-2-(4-(1-(difluoromethyl)-1H-pyrazol-3-yl)-2,6-difluorobenzyl)hydrazinyl)-4,4,4-trifluoro-3,3-dimethyl-1-oxobutan-2-yl)carbamate] | 17 |  |
| COC(=O)N[C@H](C(=O)N[C@@H](Cc1ccc(C#Cc2ccc(N3CC4CCC(C3)N4C3COC3)nc2C)cc1)[C@@H](O)CN(Cc1c(F)cc(-c2cnn(C(F)F)c2)cc1F)NC(=O)[C@@H](NC(=O)OC)C(C)(C)C(F)(F)F)C(C)(C)C(F)(F)F [Example 155, Methyl ((5S,8S,9S,14S)-11-(4-(1-(difluoromethyl)-1H-pyrazol-4-yl)-2,6-difluorobenzyl)-16,16,16-trifluoro-9-hydroxy-15,15-dimethyl-8-(4-((2-methyl-6-(8-(oxetan-3-yl)-3,8-diazabicyclo[3.2.1]octan-3-yl)pyridin-3-yl)ethynyl)benzyl)-3,6,13-trioxo-5-(1,1,1-trifluoro-2-methylpropan-2-yl)-2-oxa-4,7,11,12-tetraazahexadecan-14-yl)carbamate] | 8.95 |  |
| COC(=O)N[C@H](C(=O)N[C@@H](Cc1ccc(C#Cc2ccc(N3C[C@H]4C[C@@H]3CN4C3COC3)nc2)cc1)[C@@H](O)CN(Cc1c(F)cc(-c2ccc(F)cn2)cc1F)NC(=O)[C@@H](NC(=O)OC)C(C)(C)C(F)(F)F)C(C)(C)C(F)(F)F [Example 135, Methyl ((5S,10S,11S,14S)-8-(2,6-difluoro-4-(5-fluoropyridin-2-yl)benzyl)-16,16,16-trifluoro-10-hydroxy-15,15-dimethyl-11-(4-((6-((1R,4R)-5-(oxetan-3-yl)-2,5 diazabicyclo[2.2.1]heptan-2-yl)pyridin-3-yl)ethynyl)benzyl)-3,6,13-trioxo-5-(1,1,1-trifluoro-2-methylpropan-2-yl)-2-oxa-4,7,8,12-tetraazahexadecan-14-yl)carbamate] | 3.64 |  |
| CC(=O)N[C@H](C(=O)N[C@@H](Cc1ccc(-c2cnn(C(F)F)c2)cc1)[C@@H](O)CN(Cc1c(F)cc(-c2cnn(C(F)F)c2)cc1F)NC(=O)[C@@H](NC(C)=O)C(C)(C)C(F)(F)F)C(C)(C)C(F)(F)F [Example 217, (S)-2-acetamido-N-((2S,3S)-4-(2-((S)-2-acetamido-4,4,4-trifluoro-3,3-dimethylbutanoyl)-1-(4-(1-(difluoromethyl)-1H-pyrazol-4-yl)-2,6-difluorobenzyl)hydrazinyl)-1-(4-(1-(difluoromethyl)-1H-pyrazol-4-yl)phenyl)-3-hydroxybutan-2-yl)-4,4,4-trifluoro-3,3-dimethylbutanamide] | 113 |  |
| COC(=O)N[C@H](C(=O)NN(Cc1c(F)cc(-c2ccccn2)cc1F)C[C@H](O)[C@H](Cc1ccc(C#Cc2ccc(N3CC4CCC(C3)N4C(=O)[C@@H]3CCCO3)nc2)cc1)NC(=O)[C@@H](NC(=O)OC)C(C)(C)C(F)(F)F)C(C)(C)C [Example 224, Methyl ((5S,8S,9S,14S)-11-(2,6-difluoro-4-(pyridin-2-yl)benzyl)-9-hydroxy-15,15-dimethyl-3,6,13-trioxo-8-(4-((6-(8-((S)-tetrahydrofuran-2-carbonyl)-3,8-diazabicyclo [3.2.1]octan-3-yl)pyridin-3-yl)ethynyl)benzyl)-5-(1,1,1-trifluoro-2-methylpropan-2-yl)-2-oxa-4,7,11,12-tetraazahexadecan-14-yl)carbamate] | 4.12 |  |
| COC(=O)N[C@H](C(=O)N[C@@H](Cc1ccc(C#Cc2ccc(N3CC4CCC(C3)N4c3ncccn3)nc2)cc1)[C@@H](O)CN(Cc1c(F)cc(-c2ccn(C)n2)cc1F)NC(=O)[C@@H](NC(=O)OC)C(C)(C)C)C(C)(C)C [Example 226] | 14.9 |  |
| COC(=O)N[C@H](C(=O)N[C@@H](Cc1ccc(C#Cc2ccc(N3CCN(C4(C)COC4)CC3)nc2)cc1)[C@@H](O)CN(Cc1c(F)cc(-c2ccn(C(F)F)n2)cc1F)NC(=O)[C@@H](NC(=O)OC)C(C)(C)C(F)(F)F)C(C)(C)C(F)(F)F [Example 141, methyl ((5S,8S,9S,14S)-11-(4-(1-(difluoromethyl)-1H-pyrazol-3-yl)-2,6-difluorobenzyl)-16,16,16-trifluoro-9-hydroxy-15,15-dimethyl-8-(4-((6-(4-(3-methyloxetan-3-yl)piperazin-1-yl)pyridin-3-yl)ethynyl)benzyl)-3,6,13-trioxo-5-(1,1,1-trifluoro-2-methylpropan-2-yl)-2-oxa-4,7,11,12-tetraazahexadecan-14-yl)carbamate] |  | 6.68 |
